Data published in the supplement of paper PMC10307832.

What was measured:
Assay in all cases: relative viability (nuclei count vs DMSO), 5 days (fraction); higher = more cells survive
[1] = compound: C1=CC2=C(C=C(C(=C2N=C1)O)N=NC3=CC4=C(C=C3)C=C(C=C4)S(=O)(=O)O)S(=O)(=O)O + COc1cccc2cc(-c3nc([C@H]4CC[C@H](C(=O)O)CC4)n4ncnc(N)c34)[nH]c12 [OSI-027] (partner 0.5 µM)
In short: (§1)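 The day after seeding in 1536-well plates, lung cancer cell lines were treated by pin tool with a single drug, or with a fixed anchor-drug dose together with five library-drug doses (not always all listed) in √10 steps. After 5 days, a combined fix-and-stain solution (final 0.05% Triton X-100, 1% formaldehyde, 1 ug/ml Hoechst) was added. Nuclei counted on 4× images gave relative viability as treated counts over vehicle counts, reported as the median of duplicate plates.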

[2] = compound: C1=CC2=C(C=C(C(=C2N=C1)O)N=NC3=CC4=C(C=C3)C=C(C=C4)S(=O)(=O)O)S(=O)(=O)O + CS(=O)(=O)N1CCN(Cc2cc3nc(-c4cccc5[nH]ncc45)nc(N4CCOCC4)c3s2)CC1 [Pictilisib] (partner 1 µM)
In short: as §1

[3] = compound: O=C(NC1CCNCC1)c1n[nH]cc1NC(=O)c1c(Cl)cccc1Cl [AT-7519] + CS(=O)(=O)CCNCc1ccc(-c2ccc3ncnc(Nc4ccc(OCc5cccc(F)c5)c(Cl)c4)c3c2)o1 [Lapatinib] (partner 2 µM)
In short: as §1

[4] = compound: O=C(NC1CCNCC1)c1n[nH]cc1NC(=O)c1c(Cl)cccc1Cl [AT-7519] + Cc1nc(Nc2ncc(C(=O)Nc3c(C)cccc3Cl)s2)cc(N2CCN(CCO)CC2)n1 [Dasatinib] (partner 0.075 µM)
In short: as §1

Row | Cell Line | relative viability ([1]; first compound 0.08 µM) | relative viability ([1]; first compound 0.253 µM) | relative viability ([1]; first compound 0.8 µM) | relative viability ([1]; first compound 2.53 µM) | relative viability ([1]; first compound 8 µM) | relative viability ([2]; first compound 0.08 µM) | relative viability ([2]; first compound 0.253 µM) | relative viability ([2]; first compound 0.8 µM) | relative viability ([2]; first compound 2.53 µM) | relative viability ([2]; first compound 8 µM) | relative viability ([3]; first compound 0.01 µM) | relative viability ([3]; first compound 0.03162 µM) | relative viability ([3]; first compound 0.3162 µM) | relative viability ([3]; first compound 1 µM) | relative viability ([4]; first compound 0.01 µM) | relative viability ([4]; first compound 0.03162 µM) | relative viability ([4]; first compound 0.3162 µM) | relative viability ([4]; first compound 1 µM)
1 | HCC-827 | 0.804 | 0.764 | 0.754 | 0.798 | 0.843 | 1.09 | 1.07 | 0.801 | 1.02 | 0.992 | 0.21 | 0.165 | 0.162 | 0.157 | 0.299 | 0.298 | 0.207 | 0.249
2 | SK-LU-1 | 0.424 | 0.366 | 0.38 | 0.338 | 0.354 | 0.615 | 0.55 | 0.57 | 0.61 | 0.621 | 0.726 | 0.943 | 0.766 | 0.506 | 0.171 | 0.155 | 0.157 | 0.163
3 | NCI-H1975 | 0.784 | 0.721 | 0.767 | 0.68 | 0.784 | 0.327 | 0.299 | 0.268 | 0.305 | 0.286 | 0.861 | 0.817 | 0.447 | 0.158 | 0.341 | 0.341 | 0.384 | 0.127
4 | NCI-H1651 | 0.631 | 0.661 | 0.668 | 0.75 | 0.743 | 0.777 | 0.517 | 0.489 | 0.593 | 0.563 | 0.862 | 0.784 | 0.607 | 0.534 | 0.396 | 0.304 | 0.406 | 0.292
5 | LCLC-97TM1 | 0.535 | 0.432 | 0.496 | 0.474 | 0.515 | – | 0.239 | – | 0.149 | 0.222 | 0.83 | 0.732 | 0.805 | 0.758 | 0.911 | 0.791 | 0.763 | 0.396
6 | NCI-H727 | 0.623 | 0.549 | 0.54 | 0.592 | 0.578 | 0.591 | 0.311 | 0.217 | 0.358 | 0.482 | 0.641 | 0.82 | 0.486 | 0.235 | 0.392 | 0.401 | 0.257 | 0.135
7 | NCI-H1355 | 0.386 | 0.46 | 0.423 | 0.459 | 0.452 | 0.423 | 0.433 | 0.401 | 0.473 | 0.441 | 0.959 | 0.911 | 1.12 | 0.989 | 0.747 | 0.633 | 0.602 | 0.784
8 | HOP-62 | 0.843 | 0.817 | 0.67 | 0.807 | 0.836 | 0.842 | 0.707 | 0.651 | 0.723 | 0.691 | 1.03 | 0.963 | 1.06 | 1.05 | 0.653 | 0.699 | 0.731 | 0.626
9 | NCI-H2085 | 0.901 | 0.716 | 0.716 | 0.974 | 0.842 | 0.38 | 0.465 | 0.406 | 0.571 | 0.497 | 0.845 | 0.776 | 0.713 | 0.488 | 0.219 | 0.242 | 0.256 | 0.218
